Test systems include A549 NSCLC; HT29 colon; K-562 leukemia; NCI-H460 lung; RPMI-8226 leukemia; RXF 393 renal; SF-539 CNS; SK-MEL-5 melanoma; SNB-19 CNS; UACC-257 melanoma.
Common to all, as to experiment: DTP human tumour cell line panel, 48 h

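Grown in 96-well plates, cells were treated for 48 hours with each compound at five concentrations. Insufficient inhibition: endpoint recorded as highest concentration tested. GI50: concentration for 50% inhibition of growth. Definition used: TGI = concentration required for complete inhibition of growth.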

By GI50 is commonly meant the concentration giving 50% growth inhibition. In general, TGI refers to the concentration at which net growth stops. Low readings indicate greater sensitivity of the cells, high ones lower sensitivity of the cells. On to `NC(=O)NC(=O)CI`, for which the GI50 in the assay on A549 NSCLC was 18.8 µM; in the assay with HT29 colon, 8.97 µM; in the assay with K-562 leukemia it was 1.03 µM; in the assay with NCI-H460 lung, 18.5 µM; with RPMI-8226 leukemia, 5.38 µM; with RXF 393 renal, 5.97 µM. The GI50 in the assay with SF-539 CNS was 9.5 µM; in the assay on SK-MEL-5 melanoma, 12.9 µM; in the assay on SNB-19 CNS, 34 µM; in the assay with UACC-257 melanoma it was 3.96 µM. Also, the TGI in the assay on A549 NSCLC was determined as 37.4 µM; in the assay on HT29 colon it was 25.1 µM; with K-562 leukemia, 3.6 µM; in the assay on NCI-H460 lung it was 37.3 µM; with RPMI-8226 leukemia it was 13.1 µM; in the assay with RXF 393 renal, 18.3 µM. Besides, the TGI turned out to be 23 µM with SF-539 CNS, 26.4 µM in the assay on SK-MEL-5 melanoma, 97.7 µM with SNB-19 CNS and 13.4 µM in the assay on UACC-257 melanoma.
For `Cc1ccc(Cl)cc1Nc1nc(C(F)(F)F)ccc1C(=O)Oc1ccc(Cl)cc1`, the GI50 with A549 NSCLC is 4.86 µM; with HT29 colon, 13.3 µM; in the assay on K-562 leukemia it was 4.37 µM; with NCI-H460 lung, 16.4 µM; with RPMI-8226 leukemia, 28.6 µM; in the assay with RXF 393 renal it was 3.97 µM. Also, the GI50 was 12 µM in the assay with SF-539 CNS, 7.01 µM with SK-MEL-5 melanoma, 9.42 µM in the assay with SNB-19 CNS and 39.3 µM with UACC-257 melanoma. Also, the TGI was 20.5 µM in the assay on A549 NSCLC; > 100 µM with HT29 colon; 15 µM in the assay on K-562 leukemia; 54.2 µM with NCI-H460 lung; > 100 µM in the assay on RPMI-8226 leukemia; 16 µM in the assay with RXF 393 renal. Moreover, the TGI was 27.1 µM in the assay on SF-539 CNS, 26.8 µM with SK-MEL-5 melanoma, > 100 µM with SNB-19 CNS and > 100 µM with UACC-257 melanoma.
Take `O=C(Nc1ccccc1Cl)c1ccc(NC2=C(Cl)C(=O)N(Cc3ccccc3)C2=O)cc1`: the GI50 was 60.4 µM with A549 NSCLC; 44.8 µM in the assay on HT29 colon; 21.8 µM in the assay on K-562 leukemia; 33.3 µM with NCI-H460 lung; > 100 µM in the assay on RPMI-8226 leukemia; 18.4 µM in the assay with RXF 393 renal. For the same molecule, the GI50 in the assay on SF-539 CNS is 45.6 µM; with SK-MEL-5 melanoma it was 32.7 µM; in the assay on SNB-19 CNS, > 100 µM; in the assay on UACC-257 melanoma, 38.8 µM. The TGI in the assay on A549 NSCLC was > 100 µM; in the assay on HT29 colon it was > 100 µM; in the assay on K-562 leukemia it was 49.3 µM; in the assay on NCI-H460 lung, > 100 µM; in the assay on RPMI-8226 leukemia, > 100 µM; with RXF 393 renal, 38.2 µM. Also, the TGI in the assay on SF-539 CNS, in the assay on SK-MEL-5 melanoma, in the assay with SNB-19 CNS and with UACC-257 melanoma was > 100 µM in each case.
As to `N#CC(C#N)=C1NC(=O)C(c2ccccc2)C(=O)N1` (stereo not given), the TGI with A549 NSCLC, in the assay with HT29 colon, with K-562 leukemia, with NCI-H460 lung, in the assay on RPMI-8226 leukemia and in the assay on RXF 393 renal was > 100 µM throughout. Besides, the TGI in the assay with SF-539 CNS, with SK-MEL-5 melanoma, with SNB-19 CNS and in the assay on UACC-257 melanoma was > 100 µM in each case.
Consider `Cc1nc2cc(O)c(O)cc2cc1Oc1ccc(NC(=O)Nc2ccc(Cl)c(Cl)c2)cc1`, for which the GI50 in the assay with A549 NSCLC was 8.99 µM; in the assay on HT29 colon, 11.9 µM; in the assay on K-562 leukemia, 6.93 µM; in the assay on NCI-H460 lung it was 6.95 µM; with RPMI-8226 leukemia, 7.62 µM; in the assay with RXF 393 renal, 9.24 µM. In addition, the GI50 in the assay with SF-539 CNS is 8.86 µM; in the assay with SK-MEL-5 melanoma, 5.94 µM; with SNB-19 CNS, 10.1 µM; with UACC-257 melanoma, 7.27 µM. Moreover, the TGI with A549 NSCLC is 26.2 µM; in the assay on HT29 colon it was > 32.5 µM; in the assay with K-562 leukemia, 29.6 µM; in the assay with NCI-H460 lung, 15.8 µM; in the assay on RPMI-8226 leukemia, 20.7 µM; in the assay on RXF 393 renal, > 32.5 µM. Moreover, the TGI with SF-539 CNS was 22.7 µM; in the assay on SK-MEL-5 melanoma it was 14.2 µM; in the assay with SNB-19 CNS it was > 32.5 µM; in the assay with UACC-257 melanoma, 21.4 µM.
On to `CC(C)(C)NNc1c([N+](=O)[O-])cnn(-c2ccccc2)c1=O`, for which the TGI is 32.4 µM in the assay on A549 NSCLC; 7.43 µM with HT29 colon; 2.02 µM in the assay with K-562 leukemia; 26.3 µM in the assay with NCI-H460 lung; 23.8 µM with RPMI-8226 leukemia; 18.1 µM in the assay on RXF 393 renal. Further, the TGI in the assay with SF-539 CNS was 27.1 µM; with SK-MEL-5 melanoma it was 11.1 µM; in the assay with SNB-19 CNS, 22.7 µM; in the assay with UACC-257 melanoma, 11.4 µM.
For the molecule `O=C(O)/C(Cl)=C(/Cl)C(=O)Nc1cccc(Cl)c1`, the TGI was > 100 µM with A549 NSCLC; 42.3 µM in the assay with HT29 colon; 40.1 µM in the assay with K-562 leukemia; > 100 µM in the assay with NCI-H460 lung; 46.2 µM in the assay with RPMI-8226 leukemia; 30 µM with RXF 393 renal. Also, the concentration for total growth inhibition (TGI) was > 70.3 µM in the assay with SF-539 CNS, 33.1 µM in the assay with SK-MEL-5 melanoma, > 92.5 µM in the assay with SNB-19 CNS and 47 µM in the assay on UACC-257 melanoma.
In the case of `COC(=O)C1Cc2c([nH]c3ccccc23)C=N1` (stereo not given), the TGI in the assay on A549 NSCLC, with HT29 colon, with K-562 leukemia, with NCI-H460 lung, with RPMI-8226 leukemia and in the assay on RXF 393 renal was > 100 µM throughout. Besides, the TGI in the assay on SF-539 CNS, in the assay with SK-MEL-5 melanoma, in the assay with SNB-19 CNS and with UACC-257 melanoma was > 100 µM each time.
Take `Cc1ccc(/C=C(\C#N)n2nnc3cc(F)c(F)cc32)cc1`: the GI50 in the assay with A549 NSCLC is 2.28 µM; with HT29 colon it was 0.421 µM; in the assay on K-562 leukemia it was 0.445 µM; with NCI-H460 lung, 3.52 µM; with RPMI-8226 leukemia, 2.85 µM; in the assay on RXF 393 renal, 3.28 µM. The GI50 in the assay on SF-539 CNS is 2.59 µM; with SK-MEL-5 melanoma it was 3.65 µM; in the assay on SNB-19 CNS, 4.58 µM; with UACC-257 melanoma, 1.63 µM. The TGI in the assay with A549 NSCLC is 7.3 µM; with HT29 colon it was 1.53 µM; in the assay with K-562 leukemia it was > 100 µM; in the assay on NCI-H460 lung, 11.3 µM; with RPMI-8226 leukemia it was 8.71 µM; in the assay with RXF 393 renal, 13.5 µM. Moreover, the total growth inhibition concentration (TGI) with SF-539 CNS stood at 10.3 µM; in the assay with SK-MEL-5 melanoma it was 14.2 µM; in the assay with SNB-19 CNS, 20.9 µM; with UACC-257 melanoma, 3.54 µM.

These data come from PubChem BioAssay (NCI).
